Experimental data: patent US10639345B2, “Compositions for preserving photoreceptor cells, retinal pigment epithelial cells, or visual function” (Massachusetts Eye and Ear Infirmary, priority 2010, dated 2020)

Legend:
photoreceptors [1] = test: TUNEL-positive photoreceptors in ONL after experimental retinal detachment; format: in vivo, rat
photoreceptors [2] = test: Normalized ONL thickness ratio after experimental retinal detachment; format: in vivo, rat; conditions: subretinal Z-VAD 300 μM and/or Nec-1 400 μM
Method: Photoreceptor death was also assessed by TUNEL analysis at three days after retinal detachment in retina treated with either vehicle, Nec-1, Z-VAD or Nec-1+Z-VAD. […] Nine sections for each eye specimen were randomly selected, and the central area of detached retina and the mid-peripheral region of attached retina were photographed. The ONL thickness ratio was measured at ten points in each section by masked observers. […] (GCL: ganglion cell layer, INL: inner nuclear layer. *, P<0.05. Scale bar, 100 μm). […]
TNF-α protein contents in rat retina were determined using ELISA Kit for rat TNF-α (Invitrogen, Carlsbad, Calif.). Goat anti-mouse/rat TNF-α blocking antibody was purchased from R&D Systems (Minneapolis, Minn.). The rat eyes were subretinally injected with 1% of sodium hyaluronate containing 0.1 mg/ml of anti-TNF-α antibody or control antibody.

photoreceptors [3] = test: TEM quantification of apoptotic and necrotic photoreceptor death after retinal detachment; format: in vivo; conditions: day three after retinal detachment, ONL
Method: The morphology of photoreceptors after retinal detachment was examined by transmission electron microscopy (TEM) and propidium iodide (PI) staining and the effect of treatment with Z-VAD and/or a Nec-1 compound of Formula I-C was analyzed.
TEM was performed as previously described (Hisatomi T et al. (2008). J. CLIN. INVEST. 118:2025-2038). […] Over 200 photoreceptors each eye were photographed and subjected to quantification of cell death modes in a masked fashion. Photoreceptors showing cellular shrinkage and nuclear condensation were defined as apoptotic cells, while photoreceptors associated with cellular and organelle swelling and discontinuities in nuclear and plasma membrane were defined as necrotic cells. The presence of electron-dense granular materials were reported to occur subsequent to both apoptotic and necrotic cell death and cells with these findings were labeled simply as end-stage cell death/unclassified (Hisatomi T et al. (2003) AM. J. PATHOL. 162:1869-1879; Erickson P A et al. (1983) INVEST. OPHTHALMOL. VIS. SCI. 24:927-942).
On day three after retinal detachment, photoreceptor death caused by apoptosis was almost twice that caused by necrosis in vehicle-treated retina (% apoptotic cells: 21.7±1.3%, necrotic cells: 13.3±1.0%, unclassified: 4.4±1.4%; FIGS. 7A and 7E).

photoreceptors [4] = test: TUNEL-positive cells after retinal detachment in RIP-3−/− mice; format: in vivo; conditions: three days after retinal detachment
Method: The role of RIP-3 in RIP-mediated programmed necrosis in photoreceptor loss after retinal detachment was investigated in RIP-3 knockout (RIP-3−/−) mice. TUNEL assays were used to measure the amount of apoptotic and necrotic cell death (Grasl-Kraupp et al., HEPTALOGY (1995) 21(5):1465-8). TUNEL and quantification of TUNEL positive cells in ONL were performed as described above by using the ApopTag Fluorescein In Situ Apoptosis Detection Kit (Millipore, Billerica, Mass.).

NF-κB p65 = test: Western blot for phospho-NF-κB p65 after retinal detachment; format: in vivo
From the text: FIG. 16 is a photograph of an immunoblot from a Western blot analysis for phospho-NFκB p65 in control retina without a retinal detachment and in retina three days after retinal detachment with treatment of vehicle, Z-VAD or Z-VAD+Nec-1 (lane-loading differences were normalized by the level of β-tubulin).
The vitreous and neural retina combined was collected on day 3 after retinal detachment. Samples were run on 4-12% SDS-polyacrylamide gel electrophoresis and transferred onto PVDF membrane. After blocking with 3% nonfat dried milk, the membrane was reacted with RIP-3 (1:10000; Sigma, Saint Louis, […].), RIP-1 (1:2000; BD Biosciences), phosphoserine (1:2000; Enzo, Plymouth Meeting, Pa.) or anti-phosphorylated NF-κB p65 (1:1000; Cell signaling) antibody. Membranes were then developed with enhanced chemiluminescence. Lane-loading differences were normalized by β-tubulin (1:1000; Cell Signaling).
For Western Blot analysis, the vitreous and neural retina combined, were collected at three days after retinal detachment. Samples were run on 4-12% SDS-polyacrylamide gel electrophoresis and transferred onto PVDF membrane. After blocking with 3% nonfat dried milk, the membrane was reacted with anti-light chain 3 antibody (1:1000; Cell signaling), anti-phosphorylated ribosomal protein S6 antibody (1:1000; Cell Signaling) or anti-phosphorylated NF-κB p65 antibody (1:1000; Cell Signaling). […]

photoreceptors [5] = test: Poly I:C-induced dry AMD model, TUNEL-positive cells in ONL; format: in vivo, mice; conditions: compared with vehicle
From the text: (§1) In this example, the mechanism of photoreceptor cell death in dry AMD was investigated using a polyinosinic:polycytidylic acid (Poly I:C)-induced dry AMD model (Yang et al. (2009) NEJM 359(14):1456-63). Poly I:C is a synthetic double-stranded RNA (dsRNA) analog that activates toll-like receptor 3 (TLR3) signaling (FIG. 20A). Furthermore, dsRNA are known to exist in the drusen of human AMD patients. As depicted in FIG. 20A, activation of the TLR3 signaling results in activation of RIP-1 kinase pathway. […] In the experiments described herein, 2-3 μl of Poly I:C (1 mg/ml) was injected into the subretinal space of the eye (e.g., approximately 2-3 μg of Poly I:C was administered to the eye) to induce AMD.
The thickness of the ONL was determined by the National Institutes of Health ImageJ software. […] Specifically, the number of TUNEL-positive cells in the RIP-3−/− mice treated with poly I:C was at least three fold less than control mice consistent with RIP-3 playing a role in mediating programmed necrosis in AMD (FIG. 22B).
(§2) To determine the effect of Nec-1 and a pan-caspase inhibitor in the treatment of AMD, TUNEL assay was performed to assess photoreceptor cell death in the poly I:C induced AMD model. […] The thickness of ONL was also measured.

photoreceptors [6] = test: Poly I:C-induced dry AMD model, ONL thickness; format: in vivo, mice
From the text: as §1
The thickness of the outer nuclear layer (ONL) was also determined in WT or RIP-3−/− mice at 14 days following treatment with poly I:C. Sections were randomly selected from either WT or RIP-3−/− mice following poly I:C treatment and the retina was photographed. The ONL thickness was measured in each section by masked observers.
as §2

primary RPE cells = test: Viability of primary RPE cells treated with poly I:C (Cell Counting Kit-8); format: cell-based, mice; conditions: WT primary RPE cells, 5 μg/ml poly I:C for 48 hours
Method: As described in Example 11, primary RPE cells were extracted from the retina of mice and cultured in the presence of 5 μg/ml of poly I:C for 48 hours or with PBS. Cell viability was measured using Cell Counting Kit-8 (Dojindo Laboratories, Kumamoto, Japan). This assay is based on the cleavage of 2-(2-methoxy-4-nitrophenyl)-3-(4-nitrophenyl)-5-(2,4-disulfophenyl)-2H-tetrazolium, monosodium salt (WST-8) by the mitochondrial dehydrogenase enzyme to produce a formazan dye. After incubation with WST-8 for two hours at 37° C., absorbance was measured at 450 nm to determine cell viability.

photoreceptors [7] = test: Normalized ONL thickness ratio after retinal detachment in RIP-3−/− mice; conditions: five days after retinal detachment, RIP-3−/− mice
Method: TUNEL assays were used to measure the amount of apoptotic and necrotic cell death (Grasl-Kraupp et al., HEPTALOGY (1995) 21(5):1465-8). TUNEL and quantification of TUNEL positive cells in ONL were performed as described above by using the ApopTag Fluorescein In Situ Apoptosis Detection Kit (Millipore, Billerica, Mass.). The ratio of the ONL thickness to the thickness of neuroretina in the central area of the detached retina was determined by National Institutes of Health ImageJ software and standardized by that in the attached retina. The data are expressed as normalized ONL thickness ratio [(ONL/neuroretina thickness in detached retina)/(ONL/neuroretina thickness in attached retina)].

C[C@H](NC(=O)C(=O)Nc1ccccc1C(C)(C)C)C(=O)N[C@@H](CC(=O)O)C(=O)COc1c(F)c(F)cc(F)c1F [IDN-6556, (3-{2-[(2-tert-butyl-phenylaminooxalyl)-amino]-propionylamino}-4-oxo-5-(2,3,5,6-tetrafluoro-phenoxy)-pentanoic acid)]
neuroprotective effect / photoreceptor loss (TUNEL-positive photoreceptors and ONL thickness ratio) (photoreceptors [1]; day three after retinal detachment in rats, subretinal injection): did not show any neuroprotective effect

CN1C(=O)NC(Cc2c[nH]c3c(Cl)cccc23)C1=O (stereo not shown) [Nec-1]
number of TUNEL-positive cells in the ONL (photoreceptors [1]; day three after retinal detachment, subretinal Z-VAD 300 μM and/or Nec-1 400 μM at detachment): 1067.5±95.5 cells/mm^2
normalized ONL thickness ratio (photoreceptors [2]; five days after retinal detachment): 0.58±0.12
normalized ONL thickness ratio (photoreceptors [2]; three days after retinal detachment): 0.71±0.09
% apoptotic cells (TEM) (photoreceptors [3]): 19.8±2.0%
% necrotic cells (TEM) (photoreceptors [3]): 13.1±1.4%
% unclassified (end-stage cell death, TEM) (photoreceptors [3]): 2.8±0.4%
number of TUNEL-positive cells (photoreceptors [4]): 786.7±278.7 cells/mm^2
NF-κB p65 phosphorylation (NF-κB p65): no effect
number of TUNEL-positive cells in ONL (photoreceptors [5]): slight effect
ONL thickness (photoreceptors [6]): minimal effect
viability of RPE cells (primary RPE cells): did not protect RPE cells
normalized ONL thickness ratio (photoreceptors [7]): 0.761±0.049
